Calls of active or inactive are those of the source. No cut-off for these calls is given here.
Experiments:
[1] = molecular target: T1, Tyrosine-protein phosphatase non-receptor type 2 (Homo sapiens) (UniProt P17706); test: Inhibition of TCPTP (unknown origin) using DiFMUP as substrate at 5 uM relative to control
T1 sequence (whole entry): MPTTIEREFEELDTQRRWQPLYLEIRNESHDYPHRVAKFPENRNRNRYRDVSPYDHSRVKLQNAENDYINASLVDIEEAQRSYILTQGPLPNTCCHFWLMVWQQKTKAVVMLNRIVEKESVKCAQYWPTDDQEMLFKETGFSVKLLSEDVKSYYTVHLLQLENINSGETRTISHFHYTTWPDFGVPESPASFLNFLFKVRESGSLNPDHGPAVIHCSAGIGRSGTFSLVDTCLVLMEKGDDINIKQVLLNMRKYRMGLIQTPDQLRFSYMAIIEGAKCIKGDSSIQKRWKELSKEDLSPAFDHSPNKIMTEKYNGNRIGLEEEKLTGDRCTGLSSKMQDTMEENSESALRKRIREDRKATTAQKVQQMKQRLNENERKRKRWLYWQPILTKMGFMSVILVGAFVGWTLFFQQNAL

[2] = molecular target: Dual specificity protein phosphatase 3 (Homo sapiens) (UniProt P51452); test: Inhibition of VHR (unknown origin) using DiFMUP as substrate at 5 uM relative to control
[3] = molecular target: T2, Tyrosine-protein phosphatase non-receptor type 11 (Homo sapiens) (UniProt Q06124); test: Inhibition of SHP2 (unknown origin) using DiFMUP as substrate at 5 uM relative to control
T2 sequence (whole entry): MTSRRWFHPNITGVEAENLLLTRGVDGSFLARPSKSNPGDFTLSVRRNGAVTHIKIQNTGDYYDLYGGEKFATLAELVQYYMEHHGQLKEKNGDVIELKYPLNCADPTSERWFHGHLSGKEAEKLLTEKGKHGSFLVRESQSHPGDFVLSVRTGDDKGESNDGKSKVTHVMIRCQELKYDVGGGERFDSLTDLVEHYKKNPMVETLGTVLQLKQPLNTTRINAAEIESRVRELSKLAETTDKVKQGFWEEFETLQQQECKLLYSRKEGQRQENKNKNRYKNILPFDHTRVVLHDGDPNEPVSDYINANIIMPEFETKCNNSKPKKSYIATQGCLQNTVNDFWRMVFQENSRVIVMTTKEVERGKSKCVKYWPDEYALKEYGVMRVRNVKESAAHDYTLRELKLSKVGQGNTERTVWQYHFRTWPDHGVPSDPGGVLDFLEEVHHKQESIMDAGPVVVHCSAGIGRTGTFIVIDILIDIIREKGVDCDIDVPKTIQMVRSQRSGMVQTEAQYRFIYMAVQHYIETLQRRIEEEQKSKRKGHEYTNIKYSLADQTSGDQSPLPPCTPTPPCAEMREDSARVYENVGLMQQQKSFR

[4] = molecular target: T3, Low molecular weight phosphotyrosine protein phosphatase (Homo sapiens) (UniProt P24666); test: Inhibition of LMPTPA (unknown origin) using DiFMUP as substrate at 5 uM relative to control
T3 sequence (whole entry): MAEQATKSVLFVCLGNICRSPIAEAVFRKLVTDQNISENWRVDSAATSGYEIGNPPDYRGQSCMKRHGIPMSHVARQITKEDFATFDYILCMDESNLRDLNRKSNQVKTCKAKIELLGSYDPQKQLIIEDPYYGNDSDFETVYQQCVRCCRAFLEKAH

[5] = molecular target: T4, Receptor-type tyrosine-protein phosphatase C (Homo sapiens) (UniProt P08575); test: Inhibition of CD45 (unknown origin) using DiFMUP as substrate at 5 uM relative to control
T4 sequence (whole entry): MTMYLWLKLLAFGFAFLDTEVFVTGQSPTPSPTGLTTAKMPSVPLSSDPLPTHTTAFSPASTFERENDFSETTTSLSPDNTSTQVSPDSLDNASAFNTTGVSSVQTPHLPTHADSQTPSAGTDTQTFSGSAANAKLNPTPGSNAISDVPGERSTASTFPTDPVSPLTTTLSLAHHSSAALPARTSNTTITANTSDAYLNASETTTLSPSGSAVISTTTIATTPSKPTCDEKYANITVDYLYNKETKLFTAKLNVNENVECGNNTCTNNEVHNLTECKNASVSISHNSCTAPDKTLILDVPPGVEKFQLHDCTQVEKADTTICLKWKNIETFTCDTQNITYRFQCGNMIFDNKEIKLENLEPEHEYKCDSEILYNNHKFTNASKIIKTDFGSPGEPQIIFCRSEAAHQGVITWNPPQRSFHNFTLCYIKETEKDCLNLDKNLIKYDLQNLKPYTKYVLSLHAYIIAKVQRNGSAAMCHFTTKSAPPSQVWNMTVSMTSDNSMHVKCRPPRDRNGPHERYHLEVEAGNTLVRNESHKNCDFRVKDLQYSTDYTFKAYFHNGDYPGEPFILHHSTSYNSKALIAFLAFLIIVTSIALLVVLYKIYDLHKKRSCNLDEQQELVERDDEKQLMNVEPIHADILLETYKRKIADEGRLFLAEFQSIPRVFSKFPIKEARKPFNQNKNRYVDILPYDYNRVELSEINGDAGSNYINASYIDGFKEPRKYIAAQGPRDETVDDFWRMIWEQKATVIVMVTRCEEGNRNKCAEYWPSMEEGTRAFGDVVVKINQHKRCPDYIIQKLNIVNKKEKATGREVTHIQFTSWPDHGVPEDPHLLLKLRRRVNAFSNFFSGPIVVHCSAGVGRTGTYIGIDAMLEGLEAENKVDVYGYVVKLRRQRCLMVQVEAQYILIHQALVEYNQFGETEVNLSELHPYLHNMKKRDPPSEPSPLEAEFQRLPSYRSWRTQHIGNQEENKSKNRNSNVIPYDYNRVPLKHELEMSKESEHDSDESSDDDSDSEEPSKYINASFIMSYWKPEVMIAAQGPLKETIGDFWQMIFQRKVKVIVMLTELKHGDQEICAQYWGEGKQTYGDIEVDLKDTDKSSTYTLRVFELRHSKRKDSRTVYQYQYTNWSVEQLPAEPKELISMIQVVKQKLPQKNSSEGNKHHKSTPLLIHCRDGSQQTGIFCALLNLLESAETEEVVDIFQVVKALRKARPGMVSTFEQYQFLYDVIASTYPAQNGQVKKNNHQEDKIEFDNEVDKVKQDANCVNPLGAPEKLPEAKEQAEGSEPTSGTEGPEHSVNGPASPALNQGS

ASPC1 = test: Antimigratory activity against human AsPC1 cells overexpressing PRL3 at 10 to 20 uM after 20 hrs by crystal violet staining-based light microscopic analysis; format: functional, cell-based
DU-145 = test: Antimigratory activity against human DU145 cells expressing low level of PRL3 at 10 to 20 uM after 20 hrs by crystal violet staining-based light microscopic analysis; format: functional, cell-based
[6] = Cytotoxicity against human DLD1 cells overexpressing PRL3 assessed as cell viability at 10 ug/ml after 24 hrs by WST-1 assay relative to control; format: cell-based; settings: DLD-1 cells overexpressing PRL3, read-out: Activity
DLD-1 = test: Antiinvasive activity against human DLD1 cells overexpressing PRL3 assessed as decrease in snail expression at […] after 24 hrs by immunoblot analysis; format: functional, cell-based

Sequence of Dual specificity protein phosphatase 3 (Homo sapiens) (P51452 whole entry, looked up): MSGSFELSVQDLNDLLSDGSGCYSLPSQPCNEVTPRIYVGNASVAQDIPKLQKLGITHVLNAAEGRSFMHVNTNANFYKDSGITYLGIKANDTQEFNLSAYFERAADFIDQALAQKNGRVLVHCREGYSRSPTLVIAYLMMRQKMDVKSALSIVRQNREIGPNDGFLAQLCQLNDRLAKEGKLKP

Row | inhibition [1] | inhibition [2] | inhibition [3] | inhibition [4] | inhibition [5] | Compound | Activity (ASPC1) | Activity (DU-145) | viability at 24 h, 10 ug/ml [6] | Activity (DLD-1)
1 | 9% | 7% | 27% | 0% | 12% | O=C1NC(=S)S/C1=C\c1cc(Br)ccc1OCc1ccccc1Br | Active | inactive | 98.1% | –
2 | 1% | 3% | 18% | 6% | 11% | COc1ccccc1COc1ccccc1/C=C/C=C1\SC(=S)NC1=O | Active | inactive | 99.5% | Active

Reference: ChEMBL document CHEMBL2396625 (Bioorg Med Chem Lett, 2013)
